# Measured values reported in patent US6552053B2, “Controlling attention and memory by altering neuronal carbonic anhydrase activity” (The United States of America as represented by the …, priority 2000, dated 2003).
# Entries after “also recorded” stand apart in the source; their conditions may differ. Structures can show the parent of a compound that is named as a salt.
# Experiments:
# [1] = test system: hippocampal CA1 field potential; assay: CA1 field potential θ oscillation in hippocampal slices; assay type: cell-based, rat
# Procedure: (§1) Hippocampal slice electrophysiology. CA1 field potentials were recorded with glass microelectrodes filled with an artificial cerebrospinal fluid solution (ACSF; see below). […] Whole slices were used unless otherwise indicated. […] Signals were amplified with AxoClamp-2B amplifier, digitized, stored, and analyzed using DigiData 1200 with P-Clamp6 software (Axon Instruments). Frequency and amplitude values of oscillation were taken from an average of five consecutive traces, all triggered at the same level of the same phase. Capacitance was optimally adjusted during discontinuous current-clamp mode before and after cell penetration to neutralize capacitance and reduce overshoot/undershoot errors. Discontinuous single-electrode voltage-clamp mode was used for voltage-clamping, employing a sampling rate of 3.0-5.0 kHz (30% duty cycle). Gain was usually set at 6-8 nA·mV^−1, slightly below the maximum value without causing overshoot or instability in the step response to a repetitive 10 mV step command. Bipolar stimulating electrodes (Teflon-insulated PtIr wire with 25 μm in diameter) were placed in s. pyramidale, within 200 μm, from the recording electrode, for stimulation of interneurons (50 μA, 50 μA) in the pyramidale layer. In some cases, the position of the stimulating electrodes was slightly varied within the CA1 cell layer to obtain monophasic postsynaptic responses. […] In some experiments, an additional stimulating electrode was placed in the stratum radiatum to stimulate the Schaffer collateral pathway (Sch). Experiments in which >20% variations in the evoked IPSP magnitudes occurred during the 10-min control period were discarded.
# [2] = test system: hippocampal CA1 pyramidal cells; assay: Intracellular recording of CA1 pyramidal cells: membrane potential θ, discharge, input resistance; assay type: cell-based, rat
# Procedure: as §1
# [3] = test system: GABAergic inputs to hippocampal CA1 pyramidal cells; assay: Evoked GABAergic postsynaptic responses (IPSPs) of CA1 pyramidal cells; assay type: cell-based, rat
# Procedure: as §1
# [4] = test system: SCH-CA1 excitatory postsynaptic potentials; assay: Schaffer collateral (SCH)-CA1 excitatory postsynaptic potentials; assay type: cell-based, rat
# Procedure: Hippocampal slice electrophysiology. CA1 field potentials were recorded with glass microelectrodes filled with an artificial cerebrospinal fluid solution (ACSF; see below). Male Sprague-Dawley rats ([…]) were decapitated, and the brains were removed and cooled rapidly in an ACSF solution (˜4° C.), bubbled continuously with 95% O2-5% CO2. Hippocampi were sliced ([…]), placed in oxygenated ACSF (in mM: 124 NaCl, 3 KCl; 1.3 MgSO4; 2.4 CaCl2; 26 NaHCO3; 1.25 NaH2PO4; and 10 glucose), and perfused (2 ml/min) with the oxygenated ACSF in an interface chamber at 30-31 ° C. Whole slices were used unless otherwise indicated. CA1 pyramidal cells were recorded intracellularly (Sun, M. -K., Nelson, T. J., Xu, H., and Alkon, D. L. Calexcitin transformation of GABAergic synapses: from excitation filter to amplifier. Proc. Natl. Acad. Sci. USA 96: 7023-7028, 1999, for cell labeling) with sharp electrodes (3M KAc; tip resistance: 60-120 M; to prevent “run-down” of GABAergic responses in whole-cell recordings due to wash out of intracellular factors). […] Signals were amplified with AxoClamp-2B amplifier, digitized, stored, and analyzed using DigiData 1200 with P-Clamp6 software (Axon Instruments). […]
# Electrophysiology. […] CA1 pyramidal cells were recorded intracellularly with sharp electrodes. […]
# [5] = test system: BAS-CA1 synapses of CA1 pyramidal cells; assay: BAS-CA1 postsynaptic potentials of CA1 pyramidal cells (Example 2); assay type: cell-based, rat; conditions: for effect of ACET itself on BAS-CA1 IPSPs / effect on CE action on the synaptic response: ACET 10 μM; for increase in evoked BAS-CA1 IPSPs: agent injected into the recorded pyramidal cell; for effect on CE action on BAS-CA1 PSP: agent injected into the recorded pyramidal cell before/with CE
# Procedure: Chemicals. Cloned CE (without the C-terminal P-loop) containing a His9 leader sequence was expressed in BL21 (DE3) Escherichia coli cells and purified by repeated affinity chromatography on Ni^2+-charged His-Bind columns (Novagen). […] Heat-inactivated proteins (100° C. for 5 min) were used as control.
# Electrophysiology. […] CA1 pyramidal cells were recorded intracellularly with sharp electrodes. Intracellular microelectrode recording rather than whole-cell clamp avoids immediate internal perfusion of the test proteins and agents into the cells and marked run-down of γ-aminobutyrate (GABA)-evoked currents. […] A bipolar stimulating electrode (Teflon-insulated PtIr wire 25 μm in diameter) was also placed in the stratum pyramidale, within 200 μm from the recording electrode, for stimulation of basket interneurons (BAS) (50 μA). In some experiments, an additional bipolar electrode was placed in the stratum radiatum to stimulate the Schaffer collateral pathway (SCH). CA1 neurons with stable resting membrane potential more negative than −70 mV were studied. […] Signals were amplified with AxoClamp-2B amplifier and digitized and stored by using a DigiData 1200 with the PCLAMP6 data collection and analysis software (Axon Instruments) and a Pentium PC computer. Experiments in which >20% variations in the evoked inhibitory postsynaptic potentials (IPSPs) during a 10 min control period occurred were discarded. Percent baseline PSP at each minute was calculated by dividing its value by baseline PSP then multiplying the result by 100. Baseline PSP was the mean of 10 min before treatments in each cell. A negative sign was added to indicate its inhibitory nature so that −100% is baseline IPSP and a positive value indicates an excitatory response. Differences were considered significant at P<0.05.
# [6] = test system: SCH-CA1 excitatory postsynaptic potentials; conditions: kynurenate 500 μM (Sun et al. 1999); cited from earlier work
# [7] = rat, intraperitoneal dose; cited from earlier work
# [8] = Morris watermaze spatial memory task
# RyR = conditions: cited from earlier work
# [9] = CA3 and dentate gyrus dissected away
# [10] = kynurenate 500 μM, 20-30 min, CCH-induced θ
# [11] = 30 min, listed as Acetazolamide
smiles,measurement,setting,value
"C[N+](C)(C)CCOC(N)=O [CCH, carbachol]",CCH-induced θ activity amplitude in CA1 minislices,[1]; [9],0.73±0.04 mV
same,CCH-induced θ activity frequency in CA1 minislices,[1]; [9],7.7±0.9 Hz
same,duration of θ field potential (post-CCH recording period),"[1]; CCH 50 μM, 20 min",~3 h
same,θ field potential peak amplitude,"[1]; CCH 50 μM, 20 min, bath applied, whole slices",0.75±0.03 mV
same,θ field potential frequency,"[1]; CCH 50 μM, 20 min, whole slices",7.8±0.8 Hz
same,input resistance when θ activity became evident,[2]; CCH,79.2±1.6 MΩ
same,θ oscillation of membrane potential (intracellular θ),[2]; CCH 50 μM,7.8±1.1 mV
same,averaged discharge rate,"[2]; CCH, 5-min observing period",2.7±0.3 spikes/s
same,GABAergic postsynaptic response after CCH,"[3]; 30 min after CCH application, pre-CCH membrane potential maintained",+5.1±0.4 mV
same,reversal potential of GABAergic postsynaptic responses,[3]; during CCH 50 μM,−68.4±2.8 mV
same,response of pyramidal cells to stimulation of GABAergic inputs,"[3]; in the presence of CCH, θ frequency stimulation",elicited instantly phase-locked firing of pyramidal cells
same,evoked GABAergic current after CCH (inward current),"[3]; voltage clamp, CCH 50 μM",0.19±0.05 nA
same,single-pulse SCH stimulation-evoked excitatory postsynaptic potential,[4]; CCH,not altered
"O=C(O)c1cc(=O)c2ccccc2[nH]1 [KYN, kynurenic acid]",θ oscillation frequency in presence of kynurenate,[1]; [10],did not change
same,θ oscillation magnitude in presence of kynurenate,[1]; [10],slightly reduced
same,effect on evoked IPSPs,[3]; kynurenate 500 μM,not altered
same,elimination of SCH-CA1 EPSPs,"[4]; KYN 500 μM, 20 min",> 90%
same,BAS-CA1 IPSP in the presence of KYN,[5]; KYN 500 μM,−8.1±0.4 mV
same,reversal potential of BAS-CA1 PSPs in the presence of KYN,[5]; KYN 500 μM,−78.9 mV
same,effect on evoked BAS-CA1 IPSPs,"[5]; KYN 500 μM, 20 min",does not alter
same,excitatory postsynaptic responses of CA1 pyramidal cells to SCH stimulation,[6],effectively abolished
"CC(=O)Nc1nnc(S(N)(=O)=O)s1 [ACET, acetazolamide]",effect on calexcitin-induced intracellular θ activity,[2],did not induce; also recorded: prevented
same,induction of intracellular θ activity by CCH in presence of ACET,[2],nor intracellular θ activity (n=10; FIG. 4B3) was induced
same,evoked IPSP in the presence of ACET and CCH,"[3]; bath ACET 1 μM, CCH 50 μM",−7.7±1.0 mV
same,effect on CE-induced synaptic transformation,[5]; ACET 1 μM,eliminates
same,BAS-CA1 IPSPs 30 min after CE injection in the presence of ACET,"[5]; ACET 1 μM, 30 min, vs −100% control value",−99.2±3.5%
same,effect of ACET itself on BAS-CA1 IPSPs,[5]; 30 min,sufficient to transform the BAS-CA1 IPSPs
same,effect on CE action on the synaptic response,[5]; 30 min,abolishing effects of CE
same,effect of ACET itself on BAS-CA1 IPSPs,[5]; [11],sufficient to maintain IPSPs
same,effect on CE action on the synaptic response,[5]; [11],eliminating transformative effects of calexcitin
same,time to peak concentration in the blood,[7],≤ 1 h
same,reduction in escape latency during training trials vs saline group,"[8]; ACET 5 mg/0.5 ml/day ip (14-18 mg/kg), 65-70 min before first trial",strikingly smaller reduction
same,quadrant preference 24 h after last training trial,[8]; ACET 5 mg/0.5 ml/day ip during training,no preference to a particular quadrant
same,signs of discomfort or abnormal behaviors,[8]; during the experimental periods,no rats showed any apparent sign of discomfort or abnormal behaviors
same,memory retrieval: quadrant 4 preference vs saline control rats,"[8]; single ACET injection (5 mg/0.5 ml) 24 h after last training trial of trained rats, test 65-70 min later",no significant difference
CN1[C@@H]2CC[C@H]1C[C@@H](OC(=O)C(CO)c1ccccc1)C2 (stereo partly drawn) [atropine sulfate],effect on CCH-induced θ field activity,[1],blocked
NS(=O)(=O)c1nnc(NS(=O)(=O)c2ccccc2)s1 [benzolamide],effect on CCH-induced reversed GABAergic responses,[3]; intracellular application of benzolamide (0.1 mM in electrode),prevented
"N.N.N.N.N.N.N.N.N.N.N.N.N.N.[Cl-].[Cl-].[Cl-].[Cl-].[Cl-].[Cl-].[O-2].[O-2].[Ru+3].[Ru+3].[Ru+4] [RR, ruthenium red]",increase in evoked BAS-CA1 IPSPs,[5],16.3%±4.0%
same,effect on CE action on BAS-CA1 PSP,[5],effectively blocked
same,IC50,RyR,nanomolar range
"O=C(O)CN(CC(=O)O)c1ccccc1OCCOc1ccccc1N(CC(=O)O)CC(=O)O [BAPTA, 1,2-bis(2-aminophenoxy)ethane-N,N,N′,N′-tetraacetic acid]",increase in evoked BAS-CA1 IPSPs,[5],17.4%±3.9%
same,effect on CE action on BAS-CA1 PSP,[5],not induced; also recorded: blocking
